Test: Iron sequestering activity of the compound assessed as [Fe(H2O)6]3+ formation at 10^-5 M at pH 7.4 by spectrophotometrically in presence of 10^-6 M total iron concentration

SMILES	pM
O=C(NCCCCN(CCCNC(=O)c1cc(S(=O)(=O)O)cc(O)c1O)C(=O)c1cc(S(=O)(=O)O)cc(O)c1O)c1cc(S(=O)(=O)O)cc(O)c1O	28.5
CN(C)C(=O)c1cc(S(=O)(=O)O)cc(O)c1O	19.2
O=C(NCc1cc(CNC(=O)c2cccc(O)c2O)cc(CNC(=O)c2cccc(O)c2O)c1)c1cccc(O)c1O	29.1
CC(=O)N(O)CCCCCNC(=O)CCC(=O)N(O)CCCCCNC(=O)CCC(=O)N(O)CCCCCN	26.6
O=C(NCc1cc(S(=O)(=O)O)cc(O)c1O)c1cc(C(=O)NCc2cc(S(=O)(=O)O)cc(O)c2O)cc(C(=O)NCc2cc(S(=O)(=O)O)cc(O)c2O)c1	25.1
O=C(N[C@H]1COC(=O)[C@@H](NC(=O)c2cccc(O)c2O)COC(=O)[C@@H](NC(=O)c2cccc(O)c2O)COC1=O)c1cccc(O)c1O	35.5
O=C(NCc1cc(CNC(=O)c2cc(S(=O)(=O)O)cc(O)c2O)cc(CNC(=O)c2cc(S(=O)(=O)O)cc(O)c2O)c1)c1cc(S(=O)(=O)O)cc(O)c1O	29.4

From ChEMBL document CHEMBL3228002, “Sulfonated catecholamide analogues of enterobactin as iron sequestering agents” (J Med Chem, 1979)
